From EPA's ToxValDB 9.5 (doi:10.2903/j.efsa.2016.4584)

Key:
Anas platyrhynchos = details: acute; oral; unspecified; mortality
Apis mellifera = details: acute, mortality
Canidae = details: subchronic; duration: 90 days; oral; Dog Other
Folsomia candida = details: chronic/long-term; duration: 28 days; mortality
Landoltia sp. = details: chronic/long-term; duration: 8 weeks; frond number
Mus musculus = details: chronic; duration: 18 months; body weight
Oncorhynchus mykiss = details: acute; duration: 96 hours; mortality
Tagia sp. = details: chronic/long-term; duration: 56 days; growth

SMILES: COC(=O)c1ccc(CNS(C)(=O)=O)cc1S(=O)(=O)NC(=O)Nc1nc(OC)cc(OC)n1 [Mesosulfuron-methyl]
- LD50 (Anas platyrhynchos): > 2000 mg/kg-day
- LD50 (Apis mellifera; dermal): > 100 µg/piece
- LD50 (Apis mellifera; oral, unspecified): > 106 µg/piece
- NOAEL (Canidae): 648 mg/kg-day
- LD50 (Colinus virginianus; acute, oral, mortality): > 2000 mg/kg-day
- NOEL (Colinus virginianus; chronic): 93 mg/kg-day
- NOEC (Folsomia candida): 1000 mg/kg
- NOEC (Landoltia sp.): 0.000388 mg/L
- NOAEL (Mus musculus): 103 mg/kg-day
- LC50 (Oncorhynchus mykiss): > 100 µg/mL
- LD50 (Rattus norvegicus; acute, oral, mortality): > 5000 mg/kg
- NOEL (Rattus norvegicus; reproduction developmental, no effects): 840 mg/kg-day
- NOEC (Tagia sp.): 125 mg/kg
